Assay results: the NIST ThermoML archive (doi:10.1016/j.tca.2013.05.017)
“And” between values parts separate entries of the source, which are not always exact repeats. Equal entries are not always repeated. Numbers after ± are expanded uncertainties.

Experiment: molar heat capacity at constant pressure
Settings: 101.33 kPa, Crystal 2, Small (less than 1 g) adiabatic calorimetry

O=S(=O)([O-])[O-].[Sr+2] [sulfuric acid, strontium salt (1:1)]
Settings | molar heat capacity at constant pressure
5 K | 0.03816 ± 0.021 J/K/mol
5.083 K | 0.04505 ± 0.021 J/K/mol
5.422 K | 0.04233 ± 0.021 J/K/mol
5.622 K | 0.05543 ± 0.021 J/K/mol
5.831 K | 0.05464 ± 0.021 J/K/mol
6.044 K | 0.06693 ± 0.021 J/K/mol
6.285 K | 0.07062 ± 0.021 J/K/mol
6.354 K | 0.08024 ± 0.021 J/K/mol
6.677 K | 0.09728 ± 0.022 J/K/mol
6.759 K | 0.1018 ± 0.022 J/K/mol
7.066 K | 0.1205 ± 0.022 J/K/mol
7.169 K | 0.1252 ± 0.022 J/K/mol
7.482 K | 0.1475 ± 0.023 J/K/mol
7.591 K | 0.1545 ± 0.023 J/K/mol
7.904 K | 0.1777 ± 0.023 J/K/mol
8.021 K | 0.1873 ± 0.023 J/K/mol
8.33 K | 0.2151 ± 0.024 J/K/mol
8.448 K | 0.2273 ± 0.024 J/K/mol
8.763 K | 0.2543 ± 0.024 J/K/mol
8.881 K | 0.2707 ± 0.025 J/K/mol
9.197 K | 0.3046 ± 0.025 J/K/mol
9.317 K | 0.3217 ± 0.025 J/K/mol
9.635 K | 0.3631 ± 0.026 J/K/mol
9.755 K | 0.3798 ± 0.026 J/K/mol
10 K | 0.4163 ± 0.027 J/K/mol
10.08 K | 0.427 ± 0.027 J/K/mol
10.2 K | 0.4451 ± 0.027 J/K/mol
10.75 K | 0.543 ± 0.029 J/K/mol
10.86 K | 0.5647 ± 0.029 J/K/mol
11.64 K | 0.7154 ± 0.031 J/K/mol
11.75 K | 0.7406 ± 0.032 J/K/mol
12.54 K | 0.9194 ± 0.034 J/K/mol
12.65 K | 0.9503 ± 0.035 J/K/mol
13.45 K | 1.16 ± 0.037 J/K/mol
13.55 K | 1.197 ± 0.038 J/K/mol
14.36 K | 1.446 ± 0.041 J/K/mol
14.47 K | 1.484 ± 0.042 J/K/mol
15 K | 1.665 ± 0.044 J/K/mol
15.29 K | 1.771 ± 0.045 J/K/mol
15.39 K | 1.813 ± 0.046 J/K/mol
16.22 K | 2.105 ± 0.049 J/K/mol
16.32 K | 2.148 ± 0.05 J/K/mol
17.16 K | 2.488 ± 0.053 J/K/mol
17.26 K | 2.531 ± 0.054 J/K/mol
18.1 K | 2.928 ± 0.058 J/K/mol
18.2 K | 2.96 ± 0.058 J/K/mol
19.05 K | 3.383 ± 0.063 J/K/mol
19.14 K | 3.432 ± 0.063 J/K/mol
20 K | 3.864 ± 0.067 J/K/mol
20.01 K | 3.84 ± 0.067 J/K/mol
20.1 K | 3.907 ± 0.068 J/K/mol
21.44 K | 4.638 ± 0.074 J/K/mol
21.53 K | 4.687 ± 0.074 J/K/mol
23.36 K | 5.734 ± 0.082 J/K/mol
23.44 K | 5.783 ± 0.082 J/K/mol
25 K | 6.782 ± 0.089 J/K/mol
25.3 K | 6.945 ± 0.09 J/K/mol
25.37 K | 6.99 ± 0.09 J/K/mol
27.25 K | 8.25 ± 0.096 J/K/mol
27.32 K | 8.313 ± 0.096 J/K/mol
29.2 K | 9.624 ± 0.1 J/K/mol
30 K | 10.21 ± 0.15 J/K/mol
30.75 K | 10.74 ± 0.15 J/K/mol
31.17 K | 11.03 ± 0.16 J/K/mol
32.62 K | 12.1 ± 0.16 J/K/mol
33.14 K | 12.44 ± 0.16 J/K/mol
34.6 K | 13.58 ± 0.17 J/K/mol
34.76 K | 13.71 ± 0.17 J/K/mol
35 K | 13.95 ± 0.17 J/K/mol
35.1 K | 13.99 ± 0.17 J/K/mol
36.58 K | 15.12 ± 0.18 J/K/mol
36.73 K | 15.23 ± 0.18 J/K/mol
37.07 K | 15.51 ± 0.18 J/K/mol
38.55 K | 16.71 ± 0.18 J/K/mol
38.7 K | 16.81 ± 0.18 J/K/mol
40 K | 17.87 ± 0.19 J/K/mol
40.53 K | 18.29 ± 0.19 J/K/mol
40.68 K | 18.39 ± 0.19 J/K/mol
42.52 K | 19.85 ± 0.2 J/K/mol
42.65 K | 19.96 ± 0.2 J/K/mol
44.51 K | 21.4 ± 0.21 J/K/mol
44.63 K | 21.49 ± 0.21 J/K/mol
45 K | 21.83 ± 0.21 J/K/mol
46.49 K | 22.95 ± 0.21 J/K/mol
46.61 K | 23 ± 0.21 J/K/mol
48.48 K | 24.46 ± 0.22 J/K/mol
48.59 K | 24.49 ± 0.22 J/K/mol
50 K | 25.73 ± 0.23 J/K/mol
50.48 K | 26 ± 0.23 J/K/mol
50.57 K | 26.02 ± 0.23 J/K/mol
52.46 K | 27.61 ± 0.24 J/K/mol
52.55 K | 27.61 ± 0.24 J/K/mol
54.45 K | 29.14 ± 0.25 J/K/mol
54.52 K | 29.14 ± 0.25 J/K/mol
55 K | 29.5 ± 0.25 J/K/mol
56.45 K | 30.48 ± 0.25 J/K/mol
56.51 K | 30.49 ± 0.25 J/K/mol
58.44 K | 31.73 ± 0.26 J/K/mol
58.49 K | 31.79 ± 0.26 J/K/mol
60 K | 33.05 ± 0.27 J/K/mol
60.44 K | 33.28 ± 0.27 J/K/mol
60.48 K | 33.28 ± 0.27 J/K/mol
62.43 K | 34.65 ± 0.27 J/K/mol
62.46 K | 34.66 ± 0.27 J/K/mol
64.42 K | 35.97 ± 0.28 J/K/mol
64.44 K | 35.9 ± 0.28 J/K/mol
65 K | 36.36 ± 0.28 J/K/mol
66.35 K | 37.12 ± 0.29 J/K/mol and 37.15 ± 0.29 J/K/mol
68.19 K | 38.26 ± 0.29 J/K/mol
68.21 K | 38.27 ± 0.29 J/K/mol
69.98 K | 39.31 ± 0.3 J/K/mol
70 K | 39.32 ± 0.3 J/K/mol and 39.45 ± 0.3 J/K/mol
72.35 K | 40.74 ± 0.3 J/K/mol
72.39 K | 40.75 ± 0.3 J/K/mol
75 K | 42.32 ± 0.31 J/K/mol
75.34 K | 42.37 ± 0.31 J/K/mol
75.41 K | 42.41 ± 0.31 J/K/mol
78.33 K | 43.98 ± 0.32 J/K/mol
78.44 K | 44.04 ± 0.32 J/K/mol
79.87 K | 44.73 ± 0.32 J/K/mol
80 K | 44.96 ± 0.33 J/K/mol
81.29 K | 45.47 ± 0.33 J/K/mol
81.33 K | 45.52 ± 0.33 J/K/mol
81.48 K | 45.58 ± 0.33 J/K/mol
83.56 K | 46.57 ± 0.33 J/K/mol
84.99 K | 47.25 ± 0.34 J/K/mol
85 K | 47.4 ± 0.34 J/K/mol
85.53 K | 47.51 ± 0.34 J/K/mol
85.54 K | 47.52 ± 0.34 J/K/mol
86.61 K | 48.03 ± 0.34 J/K/mol
88.05 K | 48.76 ± 0.34 J/K/mol
89.26 K | 49.19 ± 0.35 J/K/mol
89.28 K | 49.23 ± 0.35 J/K/mol
89.67 K | 49.42 ± 0.35 J/K/mol
90 K | 49.69 ± 0.4 J/K/mol
92.33 K | 50.55 ± 0.4 J/K/mol
92.35 K | 50.59 ± 0.4 J/K/mol
92.74 K | 50.75 ± 0.4 J/K/mol
95 K | 51.83 ± 0.41 J/K/mol
95.41 K | 51.85 ± 0.41 J/K/mol
95.43 K | 51.89 ± 0.41 J/K/mol
95.81 K | 52.06 ± 0.41 J/K/mol
98.5 K | 53.08 ± 0.41 J/K/mol
98.51 K | 53.12 ± 0.41 J/K/mol
98.89 K | 53.27 ± 0.41 J/K/mol
100 K | 53.84 ± 0.42 J/K/mol
101.59 K | 54.27 ± 0.42 J/K/mol
101.61 K | 54.31 ± 0.42 J/K/mol
101.98 K | 54.46 ± 0.42 J/K/mol
104.69 K | 55.44 ± 0.42 J/K/mol
104.71 K | 55.47 ± 0.42 J/K/mol
105.08 K | 55.61 ± 0.42 J/K/mol
107.8 K | 56.58 ± 0.43 J/K/mol
107.82 K | 56.6 ± 0.43 J/K/mol
108.19 K | 56.76 ± 0.43 J/K/mol
110 K | 57.52 ± 0.43 J/K/mol
110.92 K | 57.67 ± 0.43 J/K/mol
110.94 K | 57.74 ± 0.43 J/K/mol
111.31 K | 57.81 ± 0.43 J/K/mol
114.04 K | 58.72 ± 0.44 J/K/mol
114.06 K | 58.77 ± 0.44 J/K/mol
114.43 K | 58.88 ± 0.44 J/K/mol
117.18 K | 59.76 ± 0.44 J/K/mol
117.2 K | 59.81 ± 0.44 J/K/mol
117.56 K | 59.97 ± 0.44 J/K/mol
120 K | 60.88 ± 0.44 J/K/mol
120.32 K | 60.79 ± 0.44 J/K/mol
120.33 K | 60.87 ± 0.44 J/K/mol
120.71 K | 60.96 ± 0.44 J/K/mol
123.46 K | 61.8 ± 0.45 J/K/mol
123.49 K | 61.84 ± 0.45 J/K/mol
123.85 K | 61.96 ± 0.45 J/K/mol
126.62 K | 62.8 ± 0.45 J/K/mol
126.64 K | 62.83 ± 0.45 J/K/mol
127.01 K | 62.93 ± 0.45 J/K/mol
129.77 K | 63.78 ± 0.46 J/K/mol
129.8 K | 63.86 ± 0.46 J/K/mol
130 K | 64.04 ± 0.46 J/K/mol
130.19 K | 63.91 ± 0.46 J/K/mol
132.94 K | 64.72 ± 0.46 J/K/mol
132.97 K | 64.77 ± 0.46 J/K/mol
133.35 K | 64.93 ± 0.46 J/K/mol
136.13 K | 65.69 ± 0.46 J/K/mol
136.16 K | 65.79 ± 0.46 J/K/mol
136.53 K | 65.82 ± 0.46 J/K/mol
139.32 K | 66.68 ± 0.47 J/K/mol
139.35 K | 66.65 ± 0.47 J/K/mol
139.72 K | 66.8 ± 0.47 J/K/mol
140 K | 67.03 ± 0.47 J/K/mol
142.51 K | 67.53 ± 0.47 J/K/mol
142.54 K | 67.62 ± 0.47 J/K/mol
142.91 K | 67.65 ± 0.47 J/K/mol
